Patent US8076352B2, “Administration of carboline derivatives useful in the treatment of cancer and other diseases” (PTC Therapeutics, Inc., priority 2004, dated 2011)

System: hypoxia-inducible endogenous VEGF expression in HeLa cells
Assay: Hypoxia-inducible endogenous VEGF expression, VEGF ELISA of conditioned media (dose-response EC50)
Format: cell-based
Details: HeLa cells under hypoxic conditions
In short: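 HeLa cells were cultured 24-48 h under hypoxia (1% O2, 5% CO2, balance N2) with or without compound. Conditioned-media VEGF protein was measured by ELISA against a standard curve. EC50 and CC50 come from percentage-inhibition curves over, e.g., seven concentrations, with maximal inhibition set at 100%.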

EC50 [nM]	SMILES
40 to 200	O=[N+](O)c1ccc(C2NCCc3c2[nH]c2ccc(Br)cc32)cc1 (stereo not drawn) [Compound 153]
> 1000	Clc1ccc2[nH]c3c(c2c1)CCN(Cc1ccco1)C3c1ccco1 (stereo not drawn) [Compound 265]

Same assay, conditions: HeLa cells, hypoxic conditions (1% O2)

EC50 [nM]	SMILES
< 8	COc1ccc(C2c3[nH]c4ccc(Cl)cc4c3CCN2C(=O)Oc2ccc(F)cc2)cc1 (stereo not drawn) [Compound 410]
< 8	CC(C)c1ccc(C2c3[nH]c4ccc(Br)cc4c3CCN2C(=O)Oc2ccc(Cl)cc2)cc1 (stereo not drawn) [Compound 572]

Same assay, conditions: HeLa cells, hypoxic conditions (1% O2, 5% CO2)

EC50 [nM]	SMILES
< 8	O=C(Oc1ccc(F)cc1)N1CCc2c([nH]c3ccc(Cl)cc23)C1c1ccc(OCCCn2ccnc2)cc1 (stereo not drawn) [Compound 994]

Same assay, conditions: Homo sapiens, HeLa cells under hypoxic conditions

SMILES	EC50 [nM]
O=C(Oc1ccccc1)N1CCc2c([nH]c3ccc(Br)cc23)C1c1ccccc1 (stereo not drawn) [Compound 76]	8 to 40
CC(=O)N1CCc2c([nH]c3ccc(Br)cc23)C1c1cccc(Cl)c1 (stereo not drawn) [Compound 98]	8 to 40
Clc1ccc2[nH]c3c(c2c1)CCNC3c1ccc(OCc2ccccc2)cc1 (stereo not drawn) [Compound 212]	200 to 1000
CCOC(=O)N1CCc2c([nH]c3ccccc23)C1c1ccc(OC)cc1 (stereo not drawn) [Compound 235]	> 1000
CCNC(=S)N1CCc2c([nH]c3ccc(Cl)cc23)C1c1ccc(OC)cc1 (stereo not drawn) [Compound 146]	40 to 200
Clc1ccc2[nH]c3c(c2c1)CCNC3c1cccs1 (stereo not drawn) [Compound 310]	> 1000
CCOC(=O)COc1ccc(C2c3[nH]c4ccc(Cl)cc4c3CCN2C(=O)OCC)cc1 (stereo not drawn) [Compound 365]	40 to 200
Fc1ccc2[nH]c3c(c2c1)CCNC3c1ccc(Cl)cc1 (stereo not drawn) [Compound 254]	> 1000
COc1ccc(C2c3[nH]c4ccccc4c3CCN2C(=S)NC2CCCCC2)cc1 (stereo not drawn) [Compound 312]	> 1000
COc1ccc2[nH]c3c(c2c1)CCNC3c1ccccc1 (stereo not drawn) [Compound 322]	> 1000
COc1ccc(C2c3[nH]c4ccc(C)cc4c3CCN2C(=O)Oc2ccc(Cl)cc2)cc1 (stereo not drawn) [Compound 341]	40 to 200
CCN(CC)C(=O)N1CCc2c([nH]c3ccc(Cl)cc23)C1c1ccc(OC)cc1 (stereo not drawn) [Compound 339]	> 1000
CCOC(=O)N1CCc2c([nH]c3ccc(Cl)cc23)C1c1ccc(F)cc1 (stereo not drawn) [Compound 23]	< 8
CCOC(=O)N1CCc2c([nH]c3ccc(Br)cc23)C1c1ccc(Br)cc1 (stereo not drawn) [Compound 3]	< 8
CCOC(=O)N1CCc2c([nH]c3ccc(Cl)cc23)C1c1ccc([N+](=O)[O-])cc1 (stereo not drawn) [#74]	8 to 40
Fc1ccc(F)c(C2NCCc3c2[nH]c2ccc(Br)cc32)c1 (stereo not drawn) [Compound 178]	200 to 1000
CCOC(=O)N1CCc2c([nH]c3ccc(Br)cc23)C1c1ccccc1 (stereo not drawn) [Compound 27]	< 8
CCOC(=O)N1CCc2c([nH]c3ccc(Cl)cc23)C1c1cccc(C)c1 (stereo not drawn) [Compound 109]	8 to 40
Fc1cccc(C2NCCc3c2[nH]c2ccc(Cl)cc32)c1 (stereo not drawn) [Compound 203]	200 to 1000
O=C(OCCCl)N1CCc2c([nH]c3ccc(Cl)cc23)C1c1cccc(C(F)(F)F)c1 (stereo not drawn) [Compound 15]	< 8
COC(=O)N1CCc2c([nH]c3ccc(Cl)cc23)C1c1ccc([N+](=O)[O-])cc1 (stereo not drawn) [Compound 111]	8 to 40
CCOC(=O)N1CCc2c([nH]c3ccc(Cl)cc23)C1c1cc(F)ccc1F (stereo not drawn) [Compound 82]	8 to 40
O=C(Oc1ccc(Cl)cc1)N1CCc2c([nH]c3ccc(Cl)cc23)C1c1ccc(S(=O)(=O)N2CCOCC2)cc1 (stereo not drawn) [Compound 346]	8 to 40
CCCOC(=O)N1CCc2c([nH]c3ccc(Cl)cc23)C1c1cccc(OC)c1 (stereo not drawn) [Compound 86]	8 to 40
CCCOC(=O)N1CCc2c([nH]c3ccc(Cl)cc23)C1c1ccccc1 (stereo not drawn) [Compound 94]	8 to 40
CC(C)c1ccc(C2c3[nH]c4ccc(Cl)cc4c3CCN2C(=O)OCCF)cc1 (stereo not drawn) [Compound 330]	> 1000
CCOC(=O)N1CCc2c([nH]c3ccc(F)cc23)C1c1ccc(Cl)cc1 (stereo not drawn) [Compound 229]	> 1000
CCCOC(=O)N1CCc2c([nH]c3ccc(Cl)cc23)C1c1ccc(C(C)C)cc1 (stereo not drawn) [Compound 13]	< 8

Other lines, results leading:

EC50 [nM]	SMILES
8 to 40	COC(=O)N1CCc2c([nH]c3ccc(Cl)cc23)C1c1ccc(C)cc1 (stereo not drawn) [Compound 52]
> 1000	FC(F)(F)c1cccc(C2NCCc3c2[nH]c2ccc(Cl)cc32)c1 (stereo not drawn) [Compound 299]
> 1000	Fc1ccc2[nH]c3c(c2c1)CCNC3c1cccc(Cl)c1 (stereo not drawn) [Compound 253]
< 8	CCOC(=O)N1CCc2c([nH]c3ccc(Cl)cc23)C1c1cccc(F)c1F (stereo not drawn) [Compound 5]
200 to 1000	CCOC(=O)N1CCc2c([nH]c3ccc(Cl)cc23)C1c1ccc(-n2ccnc2)cc1 (stereo not drawn) [Compound 180]
< 8	CC(C)c1ccc(C2c3[nH]c4ccc(Br)cc4c3CCN2C(=O)Oc2ccc(Cl)cc2)cc1 (stereo not drawn) [Compound 354]
< 8	COC(=O)N1CCc2c([nH]c3ccc(Cl)cc23)C1c1ccc(OC)cc1 (stereo not drawn) [Compound 43]
8 to 40	O=C(OCCCl)N1CCc2c([nH]c3ccc(Cl)cc23)C1c1ccccc1F (stereo not drawn) [Compound 103]
< 8	COC(=O)N1CCc2c([nH]c3ccc(Cl)cc23)C1c1ccc(C(C)C)cc1 (stereo not drawn) [Compound 34]
> 1000	COCCOCC(=O)N1CCc2c([nH]c3ccc(Br)cc23)C1c1ccc(C)cc1 (stereo not drawn) [Compound 258]
8 to 40	CCCOC(=O)N1CCc2c([nH]c3ccc(Cl)cc23)C1c1ccc([N+](=O)[O-])cc1 (stereo not drawn) [Compound 66]
200 to 1000	CCOC(=O)N1CCc2c([nH]c3ccc(Cl)cc23)C1c1ccccc1Cl (stereo not drawn) [Compound 183]
8 to 40	COC(=O)N1CCc2c([nH]c3ccc(Br)cc23)C1c1ccccc1 (stereo not drawn) [Compound 65]
> 1000	COc1ccc(C2NCCc3c2[nH]c2ccccc32)cc1 (stereo not drawn) [Compound 313]
200 to 1000	CCOC(=O)N1CCc2c([nH]c3ccc(F)cc23)C1c1ccc(OC)cc1 (stereo not drawn) [Compound 191]
> 1000	COc1ccc(C2c3[nH]c4ccc(Cl)cc4c3CCN2S(=O)(=O)c2ccccc2Cl)cc1 (stereo not drawn) [Compound 372]
8 to 40	CC(C)OC(=O)N1CCc2c([nH]c3ccc(Cl)cc23)C1c1ccccc1F (stereo not drawn) [Compound 105]
200 to 1000	COc1ccc(C2c3[nH]c4ccc(Cl)cc4c3CCN2C(=O)N2CCCC2)cc1 (stereo not drawn) [Compound 333]

Same assay, conditions: Homo sapiens, HeLa cells, hypoxic conditions (1% O2)

SMILES	EC50 [nM]
C=CCOc1ccc(C2c3[nH]c4ccc(Cl)cc4c3CCN2C(=O)OCC(C)C)cc1 (stereo not drawn) [Compound 414]	< 8
CN1CCN(CCCCCCOc2ccc(C3c4[nH]c5ccc(Cl)cc5c4CCN3C(=O)Oc3ccc(F)cc3)cc2)CC1 (stereo not drawn) [Compound 778]	< 8
CCOC(=O)N1CCc2c([nH]c3ccc(Cl)cc23)C1c1ccc(C(=O)N2COCC2(C)C)cc1 (stereo not drawn) [Compound 441]	8 to 40
CCOC(=O)N1CCc2c([nH]c3ccc(Cl)cc23)C1c1ccc(C(=O)N2CCN(C)CC2)cc1 (stereo not drawn) [Compound 498]	40 to 200
CCOC(=O)N1CCc2c([nH]c3ccc(Br)cc23)C1c1ccc(C(=O)N(C)CCN(C)C)cc1 (stereo not drawn) [Compound 516]	200 to 1000
CCOC(=O)N1CCc2c([nH]c3ccc(Cl)cc23)C1c1ccc(C(=O)N(C)CCCN(C)C)cc1 (stereo not drawn) [Compound 558]	200 to 1000
O=C(Oc1ccccc1Cl)N1CCc2c([nH]c3ccc(Cl)cc23)C1c1ccc(Cl)cc1 (stereo not drawn) [Compound 589]	40 to 200
CNc1ncc(C2c3[nH]c4ccc(Cl)cc4c3CCN2C(=O)Oc2ccc(OC)cc2)cn1 (stereo not drawn) [Compound 517]	200 to 1000
O=C(Oc1ccc(F)cc1)N1CCc2c([nH]c3ccc(Cl)cc23)C1c1ccc(O)cc1 (stereo not drawn) [Compound 575]	200 to 1000

Results, then the compound that gave them:

EC50 [nM]	SMILES
< 8	COCCOc1ccc(C2c3[nH]c4ccc(Cl)cc4c3CCN2C(=O)OC(C)C)cc1 (stereo not drawn) [Compound 411]
8 to 40	COc1ccc(C2c3[nH]c4ccc(Cl)cc4c3CCN2C(=O)c2ccc(-c3ccccc3)cc2)cc1 (stereo not drawn) [Compound 464]
40 to 200	CCOC(=O)N1CCc2c([nH]c3ccc(Cl)cc23)C1c1ccc(C(=O)NCCCN2CCCC2=O)cc1 (stereo not drawn) [Compound 512]
< 8	COC(=O)c1ccc(C2c3[nH]c4ccc(Cl)cc4c3CCN2C(=O)Oc2ccc(Cl)cc2)cc1 (stereo not drawn) [Compound 580]
< 8	C=CCOc1ccc(C2c3[nH]c4ccc(Cl)cc4c3CCN2C(=O)OCc2ccccc2)cc1 (stereo not drawn) [Compound 412]
8 to 40	CCOC(=O)N1CCc2c([nH]c3ccc(Cl)cc23)C1c1ccc(OCCCN(C)C)cc1 (stereo not drawn) [Compound 458]
< 8	COC(=O)c1ccc(C2c3[nH]c4ccc(Br)cc4c3CCN2C(=O)Oc2ccc(Cl)cc2)cc1 (stereo not drawn) [Compound 591]
< 8	C=CCOc1ccc(C2c3[nH]c4ccc(Cl)cc4c3CCN2C(=O)Oc2ccc(F)cc2)cc1 (stereo not drawn) [Compound 409]

Same assay, conditions: Homo sapiens, HeLa cells, hypoxic conditions (1% O2, 5% CO2)

SMILES	EC50 [nM]
CN1CCN(CCCOc2ccc(C3c4[nH]c5ccc(Cl)cc5c4CCN3C(=O)Oc3ccc(F)cc3)cc2)CC1 (stereo not drawn) [Compound 993]	< 8
O=C(Oc1ccc(F)cc1)N1CCc2c([nH]c3ccc(Cl)cc23)C1c1ccc(OCCCn2cncn2)cc1 (stereo not drawn) [Compound 892]	< 8
COCCN(C)CCCOc1ccc(C2c3[nH]c4ccc(Cl)cc4c3CCN2C(=O)Oc2ccc(F)cc2)cc1 (stereo not drawn) [Compound 992]	40 to 200
CS(=O)(=O)NCC(O)COc1ccc(C2c3[nH]c4ccc(Cl)cc4c3CCN2C(=O)Oc2ccc(Cl)cc2)cc1 (stereo not drawn) [Compound 849]	8 to 40
CNCC(O)COc1ccc(C2c3[nH]c4ccc(Cl)cc4c3CCN2C(=O)Oc2ccc(Cl)cc2)cc1 (stereo not drawn) [Compound 850]	40 to 200
CN1CCN(CC(O)COc2ccc(C3c4[nH]c5ccc(Cl)cc5c4CCN3C(=O)Oc3ccc(F)cc3)cc2)CC1 (stereo not drawn) [Compound 963]	8 to 40
O=C(Oc1ccccc1Cl)N1CCc2c([nH]c3ccc(Cl)cc23)C1c1ccc(OCCCn2ccnc2)cc1 (stereo not drawn) [Compound 934]	< 8
O=C(Oc1ccccc1)N1CCc2c([nH]c3ccc(Cl)cc23)C1c1ccc(OCCCn2cncn2)cc1 (stereo not drawn) [Compound 891]	< 8
COc1ccc(OC(=O)N2CCc3c([nH]c4ccc(Cl)cc34)C2c2ccc(OCCCn3cncn3)cc2)cc1 (stereo not drawn) [Compound 888]	< 8
CN1CCCC(COc2ccc(C3c4[nH]c5ccc(Cl)cc5c4CCN3C(=O)Oc3ccc(F)cc3)cc2)C1 (stereo not drawn) [Compound 932]	< 8
